Data reported in PMC12118337, “Development of a Peptide Inhibitor Targeting the C‐SH2 Domain of the SHP2 Phosphatase” (Chembiochem, 2025).
Residues, ends and D or L forms follow the SMILES beside them. *: point of attachment. 5FAM = O=C1OC2(c3ccc(O)cc3Oc3cc(O)ccc32)c2ccc(C(=O)*)cc21; X1 = O=C(O)C(C(=O)O)*

Target: T1, SHP2 PTP domain (Homo sapiens, UniProt Q06124)
T1 construct: SHP2 N-SH2 domain (1–105), C-SH2 domain (106–220), PTP domain (224–541) and; His6 (pETM22 vector) (N, cleaved yes); made in house; host or cells: E. coli BL21(DE3) Tuner
T1 sequence (Q06124 224-541): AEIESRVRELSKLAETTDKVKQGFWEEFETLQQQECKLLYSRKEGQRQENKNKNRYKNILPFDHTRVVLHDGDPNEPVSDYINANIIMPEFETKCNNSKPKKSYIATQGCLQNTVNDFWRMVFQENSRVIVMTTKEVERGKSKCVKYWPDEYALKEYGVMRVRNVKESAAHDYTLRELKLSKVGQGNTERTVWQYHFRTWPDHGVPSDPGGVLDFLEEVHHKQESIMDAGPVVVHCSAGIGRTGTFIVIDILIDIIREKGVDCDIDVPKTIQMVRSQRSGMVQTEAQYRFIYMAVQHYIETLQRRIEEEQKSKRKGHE
Assay: FP binding assay, SHP2 PTP domain
Conditions: 100 nM peptide, increasing C-SH2, N-SH2 or PTP domain
Procedure: buffer and stored in 5 mL binding buffer at 4°C. His-tagged 3C protease (0.5 mg; EMBL) was added to the pooled eluted fractions and dialysed using Spectra Por Dialysis Tubing (MWCO 6-8 kDa, 23 mm; Spectrum Labs) in 1 L of binding buffer at 4°C for 3 hours, then overnight in fresh buffer. A new column was prepared by loading 2 mL Ni-NTA Agarose (Invitrogen) as a 50% slurry in EtOH. The column was washed with 10 mL H2O to remove the EtOH and equilibrated with 10 mL binding buffer. The protein/3C protease mixture was loaded onto the column and incubated for 1 hour at 4°C on a rocker. […] Protein purification was monitored by SDS-PAGE using NuPAGE 4-12% Bis-Tris Protein Gels (Invitrogen) run in MOPS buffer (50 mM MOPS, 50 mM Tris-HCl pH 7.7, 1 mM EDTA, 0.1% SDS) followed by Coomassie staining using Coomassie Brilliant Blue (Roth). […]
4. Fluorescence polarization
Fluorescence polarization (FP) was used to measure the binding of FAM-labelled peptides to the SHP2 C-SH2, SHP2 N-SH2, SHP2 PTP, CSK SH2 or Src SH2 domains. […]
concentration of 100 nM in a final volume of 200 µL. […] The FP was immediately measured on a Synergy H1 Microplate Reader (BioTek) with the excitation and emission monitored at 485 nm and 528 nm, respectively, over 30 minutes. FP values were automatically calculated by the Gen5 3.03 (BioTek) software associated with the microplate reader. […]

## CC[C@H](C)[C@H](NC(=O)[C@@H](NC(=O)[C@H](C)NC(=O)[C@H](Cc1ccc(OC(C(=O)O)C(=O)O)cc1)NC(=O)[C@H](CCC(=O)O)NC(=O)[C@@H](NC(=O)[C@H](CCC(N)=O)NC(=O)c1ccc2c(c1)C(=O)OC21c2ccc(O)cc2Oc2cc(O)ccc21)[C@@H](C)O)[C@@H](C)O)C(=O)N[C@@H](CCCCN)C(=O)N[C@@H](Cc1c[nH]cn1)C(=O)N1CCC[C@H]1C(N)=O [peptide 26] (5FAM-QTEY(X1)ATIKHP-NH2)
  binding selectivity for C‐SH2 over N‐SH2 and PTP domains: maintained binding selectivity
